Article PMC9449960, “Pamoic acid is an inhibitor of HMGB1·CXCL12 elicited chemotaxis and reduces inflammation in murine models of Pseudomonas aeruginosa pneumonia” (Molecular Medicine, 2022)

What was measured:
CXCL12 = target: T1, CXCL12 (Homo sapiens, UniProt P48061); experiment: NMR titration of […]-CXCL12 (chemical shift perturbation); format: binding
T1 construct: recombinant human CXCL12

HMGB1 = target: T2, HMGB1 (Mus musculus, UniProt P63158); experiment: NMR 1H-15N HSQC titration with lineshape analysis; STD, waterLOGSY, NOEs; format: binding
T2 construct: residues 1–215
T2 sequence (P63158 1-215): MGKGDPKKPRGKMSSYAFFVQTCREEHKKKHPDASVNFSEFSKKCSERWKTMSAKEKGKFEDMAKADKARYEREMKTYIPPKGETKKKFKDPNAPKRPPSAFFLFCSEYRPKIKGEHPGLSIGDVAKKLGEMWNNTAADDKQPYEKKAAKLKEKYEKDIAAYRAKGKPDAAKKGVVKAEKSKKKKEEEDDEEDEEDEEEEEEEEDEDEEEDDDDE

T1 sequence (P48061 22-93): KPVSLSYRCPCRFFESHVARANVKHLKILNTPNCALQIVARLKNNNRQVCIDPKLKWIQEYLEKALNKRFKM

O=C(O)c1cc2ccccc2c(Cc2c(O)c(C(=O)O)cc3ccccc23)c1O [PAM, pamoic acid]
Kd (CXCL12): 66 ± 4 µM
Kd (HMGB1): 170 ± 17 µM
